Experiments:
[1] = test system: SA-β-gal-positive senescent cells in bleomycin-injured lungs; assay: Bleomycin-induced lung injury (lung fibrosis and senescence) mouse model; type: in vivo, mice
Experimental: All drugs were mixed in 90% PBS, 5% Tween-80 (P1754, Sigma), and 5% polyethylene glycol (PEG) (81172, Sigma) and administered to mice by intraperitoneal (i.p.) injection. For treating bleomycin-injured young mice, SSK1 (0.5 mg/kg) or vehicle were given consecutive two days every week for five weeks. For old mice (20-month-old), SSK1 (0.5 mg/kg), gemcitabine (0.5 mg/kg) or vehicle were administrated for continued 3 days every two weeks. Gemcitabine was purchased from MCE.
Bleomycin was purchased from Selleck. To induce lung senescence and fibrosis, young male and female mice (3-month-old) were subjected to transtracheal injection of bleomycin (1 mg/kg) as previously reported (Bivas-Benita et al., Eur J Pharm Biopharm 61, 214-218(2005))
Cultured cells were washed once with PBS and fixed in β-galactosidase staining fix solution for 15 min at room temperature. Cells were then washed three times with PBS and incubated with β-galactosidase staining solution (Beyotime Biotechnology) for 16-20 hours at 37° C. For 12-well plates, 1 ml of β-galactosidase staining solution was added to each well. The plate was sealed with Parafilm to prevent evaporation of the staining medium. After the overnight incubation, cells were washed with PBS and observed under a bright field microscope. For β-galactosidase staining of frozen sections, the frozen sections were dried at 37° C. for 20-30 min and then fixed in β-galactosidase staining fix solution for 15 min at room temperature. The frozen sections were washed three times with PBS and incubated with β-galactosidase staining solution overnight at 37° C. After completion of β-galactosidase staining, the sections were stained with eosin for 1-2 min, rinsed under running water for 1 min, differentiated in 1% acid alcohol for 10-20 sec, and washed again under running water for 1 min. Sections were dehydrated in increasing concentrations of alcohols and cleared in xylene. Excess xylene was drained and a coverslip was placed over the section. After drying, the sample was observed under a microscope.
Lung, liver, and kidney frozen sections stained with SA-β-Gal were quantified by ImageJ software (NIH) to measure the SA-β-Gal positive area. The total area was quantified by eosin positive area with ImageJ software (NIH). The relative positive SA-β-Gal positive cells were calculated with the SA-β-Gal positive area divided by the total area. Each mouse was measured with 3-5 regions.
For detecting the p21 expression in lungs, we conducted the immunohistochemical staining experiment for p21 with an immunohistochemical staining kit (SP-9000, ZSGB-BIO). Freshly isolated tissues were fixed by 10% formalin for one day and then transferred in 20% formalin for another day. The tissue blocks were then dehydrated and embedded in paraffin. The embedded tissues were cut and affixed on slides. Before immunohistochemical staining, the slides were deparaffinized, rehydrated, and performed antigen retrieve by high pressure and high temperature in Tris/EDTA pH 8.0 buffer solution. Immunohistochemical staining was conducted according to the manufacturers' instructions.
Total RNA was isolated using the Direct-zol RNA MiniPrep Kit (Zymo Research, R2072). […] Data were analyzed using the 2^(−ΔΔCt) method. […]

[2] = Serum biochemical test and routine blood analysis in old mice (toxicity); type: in vivo
Experimental: All drugs were mixed in 90% PBS, 5% Tween-80 (P1754, Sigma), and 5% polyethylene glycol (PEG) (81172, Sigma) and administered to mice by intraperitoneal (i.p.) injection. […] […] Gemcitabine was purchased from MCE.
For blood routine examination, 50 μl fresh blood was collected from each mouse and mixed with EDTA immediately. The blood samples were analyzed by Celltac Alpha MEK-6400 series hematology analyzers (Nihon Kohden, MEK-6400). For serum biochemical analysis, blood samples were collected, clotted for 2 hours at room temperature or overnight at 4° C., and then centrifuged (1000 g, 10 min) to gain serum. 200 μl serum was aliquot and analyzed of Alanine transaminase (ALT), aspartate transaminase (AST), uric acid (UA) and creatinine (CREA) by Chemistry Analyzer (Mindray, BS-350E).

CC(=O)OCC1O[C@@H](Oc2ccc(COC(=O)Nc3ccn([C@@H]4O[C@H](CO)C(O)C4(F)F)c(=O)n3)cc2[N+](=O)[O-])C(OC(C)=O)C(OC(C)=O)[C@H]1OC(C)=O (some centres unmarked) [SSK1]
Decline in physical functions (treadmill exhaustion distance) ([1]; SSK1 0.5 mg/kg i.p.): attenuated | Lung fibrosis ([1]; SSK1 0.5 mg/kg i.p.): attenuated | p21-positive cells and other senescence-associated markers in lungs (immunohistochemistry, RT-qPCR) ([1]; SSK1 0.5 mg/kg i.p.): decreased p21-positive cells and other senescence-associated markers | Decrease of SA-β-gal-positive cells in lungs vs vehicle ([1]; SSK1 0.5 mg/kg i.p., five weeks): 3.8 fold | β-gal positive macrophages in injured lungs ([1]; SSK1 0.5 mg/kg, xCell analysis of RNA-seq, FIG. 6C): reduction of β-gal positive macrophages was observed | Systemic toxicities (serum biochemical test and routine blood analysis) ([2]; aged mice, high concentration (100 mg/kg) and high frequency, 5 weeks, 3 injections a week): no obvious systemic toxicities | Apoptosis of β-gal positive epithelial tubular cells in the kidney ([2]; following SSK1 treatment): only a few cells of this tubular cell population was shown to be undergoing apoptosis | System toxicity (serum biochemical test and routine blood analysis) ([2]; old mice, 0.5 mg/kg for 8 weeks, FIGS. 7A and B): no obvious system toxicity
